Measured values from the supplement of paper PMC10307832.

Key:
Assay in all cases: relative viability (nuclei count vs DMSO), 5 days (fraction); higher = more cells survive
ABC-1 = tested on: ABC-1
Method in brief: (§1)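 Cells from lung cancer lines were seeded into 1536-well plates and, one day later, dosed by pin tool. Treatments were either a single drug or a fixed dose of an anchor drug with five library-drug doses (not always all listed) in √10 steps. After 5 days, nuclei were stained in a one-step fixation (final 0.05% Triton X-100, 1% formaldehyde, 1 ug/ml Hoechst) and counted on 4× images, and relative viability is the treated-to-vehicle nuclei ratio, as the median of duplicate plates.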

CAL-12T = tested on: CAL-12T
Method in brief: as §1

COR-L 105 = tested on: COR-L 105
Method in brief: as §1

ChaGo-K-1 = tested on: ChaGo-K-1
Method in brief: as §1

EMC-BAC-2 = tested on: EMC-BAC-2
Method in brief: as §1

EPLC-272H = tested on: EPLC-272H
Method in brief: as §1

HCC-15 = tested on: HCC-15
Method in brief: as §1

HCC-78 = tested on: HCC-78
Method in brief: as §1

HOP-62 = tested on: HOP-62
Method in brief: as §1

LXF-289 = tested on: LXF-289
Method in brief: as §1

NCI-H1666 = tested on: NCI-H1666
Method in brief: as §1

NCI-H1755 = tested on: NCI-H1755
Method in brief: as §1

NCI-H1915 = tested on: NCI-H1915
Method in brief: as §1

NCI-H1975 = tested on: NCI-H1975
Method in brief: as §1

NCI-H2023 = tested on: NCI-H2023
Method in brief: as §1

NCI-H2085 = tested on: NCI-H2085
Method in brief: as §1

NCI-H2126 = tested on: NCI-H2126
Method in brief: as §1

NCI-H3122 = tested on: NCI-H3122
Method in brief: as §1

NCI-H322M = tested on: NCI-H322M
Method in brief: as §1

NCI-H358 = tested on: NCI-H358
Method in brief: as §1

NCI-H441 = tested on: NCI-H441
Method in brief: as §1

UMC-11 = tested on: UMC-11
Method in brief: as §1

SMILES: CCN(CC)CCCCNc1ncc2cc(-c3cc(OC)cc(OC)c3)c(NC(=O)NC(C)(C)C)nc2n1 + N=C(N)NC(=N)NCCc1ccccc1 [Phenformin] (partner 250 µM)
- relative viability (ABC-1; first compound 0.01 µM): 0.24
- relative viability (ABC-1; first compound 0.03162 µM): 0.286
- relative viability (ABC-1; first compound 0.1 µM): 0.256
- relative viability (ABC-1; first compound 0.3162 µM): 0.208
- relative viability (ABC-1; first compound 1 µM): 0.254
- relative viability (CAL-12T; first compound 0.01 µM): 0.595
- relative viability (CAL-12T; first compound 0.03162 µM): 0.582
- relative viability (CAL-12T; first compound 0.1 µM): 0.673
- relative viability (CAL-12T; first compound 0.3162 µM): 0.726
- relative viability (CAL-12T; first compound 1 µM): 0.573
- relative viability (COR-L 105; first compound 0.01 µM): 0.476
- relative viability (COR-L 105; first compound 0.03162 µM): 0.521
- relative viability (COR-L 105; first compound 0.1 µM): 0.47
- relative viability (COR-L 105; first compound 0.3162 µM): 0.615
- relative viability (COR-L 105; first compound 1 µM): 0.421
- relative viability (ChaGo-K-1; first compound 0.01 µM): 0.541
- relative viability (ChaGo-K-1; first compound 0.03162 µM): 0.45
- relative viability (ChaGo-K-1; first compound 0.1 µM): 0.585
- relative viability (ChaGo-K-1; first compound 0.3162 µM): 0.47
- relative viability (ChaGo-K-1; first compound 1 µM): 0.474
- relative viability (EMC-BAC-2; first compound 0.01 µM): 0.525
- relative viability (EMC-BAC-2; first compound 0.03162 µM): 0.586
- relative viability (EMC-BAC-2; first compound 0.1 µM): 0.562
- relative viability (EMC-BAC-2; first compound 0.3162 µM): 0.592
- relative viability (EMC-BAC-2; first compound 1 µM): 0.418
- relative viability (EPLC-272H; first compound 0.01 µM): 0.324
- relative viability (EPLC-272H; first compound 0.03162 µM): 0.3
- relative viability (EPLC-272H; first compound 0.1 µM): 0.236
- relative viability (EPLC-272H; first compound 0.3162 µM): 0.296
- relative viability (EPLC-272H; first compound 1 µM): 0.288
- relative viability (HCC-15; first compound 0.01 µM): 0.466
- relative viability (HCC-15; first compound 0.03162 µM): 0.535
- relative viability (HCC-15; first compound 0.1 µM): 0.526
- relative viability (HCC-15; first compound 0.3162 µM): 0.484
- relative viability (HCC-15; first compound 1 µM): 0.424
- relative viability (HCC-78; first compound 0.01 µM): 0.646
- relative viability (HCC-78; first compound 0.03162 µM): 0.732
- relative viability (HCC-78; first compound 0.1 µM): 0.663
- relative viability (HCC-78; first compound 0.3162 µM): 0.805
- relative viability (HCC-78; first compound 1 µM): 0.631
- relative viability (HOP-62; first compound 0.01 µM): 0.81
- relative viability (HOP-62; first compound 0.03162 µM): 0.847
- relative viability (HOP-62; first compound 0.1 µM): 0.604
- relative viability (HOP-62; first compound 0.3162 µM): 0.752
- relative viability (HOP-62; first compound 1 µM): 0.654
- relative viability (LXF-289; first compound 0.01 µM): 0.506
- relative viability (LXF-289; first compound 0.03162 µM): 0.542
- relative viability (LXF-289; first compound 0.1 µM): 0.547
- relative viability (LXF-289; first compound 0.3162 µM): 0.53
- relative viability (LXF-289; first compound 1 µM): 0.424
- relative viability (NCI-H1666; first compound 0.01 µM): 0.582
- relative viability (NCI-H1666; first compound 0.03162 µM): 0.562
- relative viability (NCI-H1666; first compound 0.1 µM): 0.574
- relative viability (NCI-H1666; first compound 0.3162 µM): 0.644
- relative viability (NCI-H1666; first compound 1 µM): 0.507
- relative viability (NCI-H1755; first compound 0.01 µM): 0.634
- relative viability (NCI-H1755; first compound 0.03162 µM): 0.649
- relative viability (NCI-H1755; first compound 0.1 µM): 0.677
- relative viability (NCI-H1755; first compound 0.3162 µM): 0.675
- relative viability (NCI-H1755; first compound 1 µM): 0.585
- relative viability (NCI-H1915; first compound 0.01 µM): 0.376
- relative viability (NCI-H1915; first compound 0.03162 µM): 0.377
- relative viability (NCI-H1915; first compound 0.1 µM): 0.365
- relative viability (NCI-H1915; first compound 0.3162 µM): 0.373
- relative viability (NCI-H1915; first compound 1 µM): 0.337
- relative viability (NCI-H1975; first compound 0.01 µM): 0.429
- relative viability (NCI-H1975; first compound 0.03162 µM): 0.398
- relative viability (NCI-H1975; first compound 0.1 µM): 0.481
- relative viability (NCI-H1975; first compound 0.3162 µM): 0.408
- relative viability (NCI-H1975; first compound 1 µM): 0.401
- relative viability (NCI-H2023; first compound 0.01 µM): 0.415
- relative viability (NCI-H2023; first compound 0.03162 µM): 0.43
- relative viability (NCI-H2023; first compound 0.1 µM): 0.5
- relative viability (NCI-H2023; first compound 0.3162 µM): 0.432
- relative viability (NCI-H2023; first compound 1 µM): 0.4
- relative viability (NCI-H2085; first compound 0.01 µM): 0.735
- relative viability (NCI-H2085; first compound 0.03162 µM): 0.661
- relative viability (NCI-H2085; first compound 0.1 µM): 0.76
- relative viability (NCI-H2085; first compound 0.3162 µM): 0.808
- relative viability (NCI-H2085; first compound 1 µM): 0.779
- relative viability (NCI-H2126; first compound 0.01 µM): 0.496
- relative viability (NCI-H2126; first compound 0.03162 µM): 0.52
- relative viability (NCI-H2126; first compound 0.1 µM): 0.551
- relative viability (NCI-H2126; first compound 0.3162 µM): 0.623
- relative viability (NCI-H2126; first compound 1 µM): 0.515
- relative viability (NCI-H3122; first compound 0.01 µM): 0.39
- relative viability (NCI-H3122; first compound 0.03162 µM): 0.362
- relative viability (NCI-H3122; first compound 0.1 µM): 0.633
- relative viability (NCI-H3122; first compound 0.3162 µM): 0.367
- relative viability (NCI-H3122; first compound 1 µM): 0.321
- relative viability (NCI-H322M; first compound 0.01 µM): 0.77
- relative viability (NCI-H322M; first compound 0.03162 µM): 0.779
- relative viability (NCI-H322M; first compound 0.1 µM): 0.791
- relative viability (NCI-H322M; first compound 0.3162 µM): 0.784
- relative viability (NCI-H322M; first compound 1 µM): 0.668
- relative viability (NCI-H358; first compound 0.01 µM): 0.358
- relative viability (NCI-H358; first compound 0.03162 µM): 0.302
- relative viability (NCI-H358; first compound 0.1 µM): 0.358
- relative viability (NCI-H358; first compound 0.3162 µM): 0.472
- relative viability (NCI-H358; first compound 1 µM): 0.331
- relative viability (NCI-H441; first compound 0.01 µM): 0.826
- relative viability (NCI-H441; first compound 0.03162 µM): 0.87
- relative viability (NCI-H441; first compound 0.1 µM): 1.02
- relative viability (NCI-H441; first compound 0.3162 µM): 0.835
- relative viability (NCI-H441; first compound 1 µM): 0.933
- relative viability (UMC-11; first compound 0.01 µM): 0.346
- relative viability (UMC-11; first compound 0.03162 µM): 0.353
- relative viability (UMC-11; first compound 0.1 µM): 0.371
- relative viability (UMC-11; first compound 0.3162 µM): 0.343
- relative viability (UMC-11; first compound 1 µM): 0.362
